Holding throughout (type): biochemical
The target in one assay is stromelysin (Homo sapiens, UniProt P08254). Description: Assay of stromelysin inhibition activity (fluorogenic coumarin peptide substrate). The following applies: trypsin-activated stromelysin 2 nM, H-150 buffer pH 7.4, room temperature; read-out: Ki(app). As to the method:
Stromelysin was first activated with trypsin. This was done by preparing a reaction mixture in H-150 (H-150 consists of 10 mM CaCl2, 150 mM NaCl and 100 mM HEPES at pH 7.4) containing a final concentration of 25 μg/mL trypsin and 2.2 μM of stromelysin (Marcy et al., Biochemistry,30:6476 (1991); Koklitis et al., Biochem. J., 376:217 (1991). The reaction was incubated for 30 minutes at 37° C. and then quenched by adding trypsin inhibitor agarose to the reaction mixture at a 20 fold excess with respect to trypsin.
The reaction mixture was centrifuged at 14,000 rpm (16,000 ×g) for 30 minutes using an Eppendorf Centrifuge 5415C. The supernant, which contains activated stromelysin, was concentrated with a Centricon 10 (5000 g, 1 hour). A sample was analyzed by Bradford total protein assay and 12% SDS polyacrylamide gel electrophoresis.
All steps of the stromelysin inhibition assay were performed at room temperature. Assay solutions were prepared for each inhibitor tested. Activated stromelysin was added to a stirred covelte to a final concentration of 2 nM in 2 mL of H-150 buffer. 4 μL 5 mM coumarin peptide substrate was dissolved in DMSO and the initial rate of hydrolysis was measured for 100-200 seconds.
Substrate hydrolysis was assessed by fluorescence using a slit width of 10:10, excitation at 328 nm and emission at 393 nm. Ki was calculated based on the assumption of simple competitive inhibition and a substrate concentration much less than Km. 2 μL of 10 mM inhibitor in DMSO was added and the reduction in hydrolysis rate measured. The addition of 2 μL of inhibitor was continued until a 30-70% inhibition was observed.

For the next assay, the target named is 92 kD gelatinase (Homo sapiens, UniProt P14780). Description: Assay of 92 KD gelatinase inhibition activity. The following applies: 92KD gelatinase 25 pM, H-150 buffer pH 7.4; read-out: Ki(app). As to the method:
H-150 buffer, pH 7.4, was prepared by CaCl2 H2 O (1.47 grams), NaCl (8.77 grams) and N-[2-hydroxyethyl]piperazine-N'-[2-ethanesulfonic acid](23.83 grams) to distilled and deionized water and then bring the final volume of the solution to 1 liter. A reaction mixture having a final volume of 500 μL was prepared with H-150 buffer, 200 μgrams of Pro-92KD gelatinase (Strongin et al., J. Biol. Chem., 268:14033 (1993); Goldberg, et al., J. Biol. Chem., 267:4583 (1992); Okada et al., J. Biol. Chem. 267:21712 (1992)), p-aminophenyl mercuric acetate (Sigma Chemical Co., St. Louis, Mo.) (1 mM) and Brij (dodexylpoly(oxyethyleneglycolether))(0,008% w/v). The reaction mixture wsa then incubated for 24 hours at 37° C.
The reaction mixture was applied to a NAP-5 column (G-25 SEPHADEX™, Pharmacia). Fractions containing 72KD gelatinase were identified using 12% polyacrylamide gel electrophoresis and concentrated to about 100-200 μliters by centrifigation (5000 g, 1 hour).
A solution containing H-150 buffer (2.0 mL), 92KD gelatinase (25 pM) and ethylphenolpoly(ethylene-glycolether)n (Boerhringer Mannheim) (4.0 μM) was prepared in a stirred cuvette. Coumarin peptide substrate (4 μL of a 5 mM solution in dimethyl sulfoxide) was added to the reaction mixture. The rate of hydrolysis was determined for about 100-200 seconds by measuring the fluorescence of the reaction at ex328 nanometers and […] using a Hitachi F-2000 Fluorescence Spectrophotometer.
(§1) 2 μL of a 10 mM inhibitor stock solution (in dimethyl sulfoxide) is added and the reduction in the rate of hydrolysis is determined. Additional 2 μL aliquots of the stock inhibitor solution is added until a 30% to 70% inhibition is observed. Ki is calculated on the assumption of simple competitive inhibition and that the substrate concentration is much less than Km.

The next assay deals with T1, 72 kD gelatinase (Homo sapiens, UniProt P08253).
T1 sequence (P08253 110-660): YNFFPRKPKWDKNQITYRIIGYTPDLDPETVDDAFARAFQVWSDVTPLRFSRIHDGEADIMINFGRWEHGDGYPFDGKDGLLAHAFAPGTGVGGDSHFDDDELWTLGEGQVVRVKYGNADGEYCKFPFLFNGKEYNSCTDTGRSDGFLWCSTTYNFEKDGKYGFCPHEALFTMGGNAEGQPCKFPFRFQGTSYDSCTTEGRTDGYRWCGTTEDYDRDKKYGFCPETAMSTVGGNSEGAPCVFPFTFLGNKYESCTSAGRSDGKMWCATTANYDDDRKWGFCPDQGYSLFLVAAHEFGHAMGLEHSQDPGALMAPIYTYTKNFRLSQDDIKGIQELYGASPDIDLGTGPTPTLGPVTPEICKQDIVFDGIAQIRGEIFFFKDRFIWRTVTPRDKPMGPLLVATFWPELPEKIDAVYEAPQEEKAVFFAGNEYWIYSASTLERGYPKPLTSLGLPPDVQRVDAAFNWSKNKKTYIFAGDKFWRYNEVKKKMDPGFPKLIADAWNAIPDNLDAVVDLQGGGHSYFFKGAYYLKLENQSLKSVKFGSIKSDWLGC
Description: Assay of 72 KD gelatinase inhibition activity. The following applies: 72KD gelatinase 180 pM, H-150 buffer pH 7.4; read-out: Ki(app). The method, then: H-150 buffer, pH 7.4, was prepared by CaCl2 H2O (1.47 grams), NaCl (8.77 grams) and N-[2 -hydroxyethyl]piperazine-N'-[2-ethanesulfonic acid](23.83 grams) to distilled and deionized water and then bring the final volume of the solution to 1 liter. An reaction mixture having a final volume of 250 μL was prepared with H-150 buffer, 40 μgrams of Pro-72KD gelatinase (Strongin, et al., J. Biol. Chem. 268:14033 (1993); Goldberg, et al., J. Biol. Chem., 267:4583 (1992); Kleiner, et al., Biochemistry 32:1583 (1993)) and p-aminophenyl mercuric acetate (Sigma Chemical Co., St. Louis, Mo.) (1 mM). The reaction mixture was then incubated for 3 hours at 25° C.
The reaction mixture was applied to a NAP-5 column (G-25 SEPHADEX™, Pharmacia). Fractions containing […] were identified using 12% SDS polyacrylamide gel electrphoresis and concentrated to about 100-200 μliters by centrifigation (5000 g, 15 minutes).
A solution containing H-150 buffer (2.0 mL), 72KD gelatinase (180 pM) and ethylphenolpoly(ethylene-glycolether)n (Boerhringer Mannheim) (1.3 μM) was prepared in a stirred cuvette. Coumarin peptide substrate (2 μL of a 1 mM solution in dimethyl sulfoxide) was added to the reaction mixture. The rate of hydrolysis was determined for about 100-200 seconds by measuring the fluorescence of the reaction at ex328 nanometers and […] using a Hitachi F-2000 Fluorescence Spectrophotometer.
as §1

Assay [1] deals with human neutrophil collagenase (Homo sapiens, UniProt P22894). The assay is described as follows: Assay of human neutrophil collagenase inhibition activity. The following applies: human neutrophil collagenase 2 nM, H-150 buffer pH 7.4; read-out: Ki(app). The method, then:
H-150 buffer, pH 7.4, was prepared by adding CaCl2 H2 O (1.47 grams), NaCl (8.77 grams) and N-[2-hydroxyethyl]piperazine-N'-[2-ethanesulfonic acid] (23.83 grams) to distilled and deionized water and then bringing the final volume of the solution to 1 liter.
A reaction mixture with a final volume of 2.0 mL was prepared from H-150 buffer, human neutrophil collagenase (Schnierer, et al., Blochem. Biophys. Res. Comm., 191:319 (1993); Knight et al., Federation of Europena Biochemical Societies 296:263 (1992)) (2 nM). Coumarin peptide substrate (4 μL of a 5 mM solution in dimethyl sulfoxide) was added to the reaction mixture. The rate of hydrolysis was determined for about 100-200 seconds by measuring the fluorescence of the reaction at ex328 nanometers and […] using a Hitachi F-2000 Fluorescence Spectrophotometer.
as §1

Chain of 92 kD gelatinase (P14780 107-707): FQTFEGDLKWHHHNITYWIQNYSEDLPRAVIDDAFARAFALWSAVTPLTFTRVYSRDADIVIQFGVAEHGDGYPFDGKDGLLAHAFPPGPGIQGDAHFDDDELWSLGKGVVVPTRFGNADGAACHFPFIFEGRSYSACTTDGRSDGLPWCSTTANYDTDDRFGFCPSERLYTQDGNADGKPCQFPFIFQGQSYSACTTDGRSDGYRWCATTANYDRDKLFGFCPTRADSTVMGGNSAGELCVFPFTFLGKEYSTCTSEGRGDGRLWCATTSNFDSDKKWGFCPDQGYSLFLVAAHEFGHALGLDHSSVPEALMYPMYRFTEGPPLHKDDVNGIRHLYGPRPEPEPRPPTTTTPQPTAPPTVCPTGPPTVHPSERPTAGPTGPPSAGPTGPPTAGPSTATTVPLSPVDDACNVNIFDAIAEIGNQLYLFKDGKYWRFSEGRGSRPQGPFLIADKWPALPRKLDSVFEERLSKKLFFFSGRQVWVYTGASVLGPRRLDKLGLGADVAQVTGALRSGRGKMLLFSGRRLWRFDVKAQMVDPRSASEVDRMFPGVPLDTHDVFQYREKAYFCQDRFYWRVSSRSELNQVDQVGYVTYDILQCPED
Chain of stromelysin (P08254 100-477): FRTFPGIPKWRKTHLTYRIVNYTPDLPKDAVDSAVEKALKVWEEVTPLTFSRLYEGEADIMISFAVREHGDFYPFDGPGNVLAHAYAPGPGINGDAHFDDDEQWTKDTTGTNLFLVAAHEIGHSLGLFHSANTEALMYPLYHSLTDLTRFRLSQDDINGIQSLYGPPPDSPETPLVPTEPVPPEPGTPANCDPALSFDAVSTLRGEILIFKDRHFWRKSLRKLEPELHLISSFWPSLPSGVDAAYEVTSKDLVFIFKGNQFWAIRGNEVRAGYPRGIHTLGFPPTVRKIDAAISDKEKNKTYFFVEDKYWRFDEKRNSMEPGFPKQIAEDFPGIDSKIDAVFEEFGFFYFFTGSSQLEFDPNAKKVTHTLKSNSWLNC
Chain of human neutrophil collagenase (P22894 101-467): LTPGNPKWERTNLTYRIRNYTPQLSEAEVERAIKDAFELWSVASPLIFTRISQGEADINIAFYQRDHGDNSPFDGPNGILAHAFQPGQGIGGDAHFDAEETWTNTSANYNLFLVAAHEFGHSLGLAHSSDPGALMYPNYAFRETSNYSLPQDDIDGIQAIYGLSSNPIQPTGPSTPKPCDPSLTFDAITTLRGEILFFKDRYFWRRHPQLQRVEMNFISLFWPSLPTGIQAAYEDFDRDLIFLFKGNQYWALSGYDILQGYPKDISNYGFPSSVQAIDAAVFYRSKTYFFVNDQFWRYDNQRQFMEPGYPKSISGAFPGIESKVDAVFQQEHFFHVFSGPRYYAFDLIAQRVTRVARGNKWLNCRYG

As for `CSCC[C@H](NC(=O)[C@H](Cc1ccccc1)NC(=O)OCc1ccccc1)C(=O)Nc1n[nH]c(=S)s1` [5-(N-benzyloxycarbonyl-phenylalanyl-methionylamino)-1,3,4-thiadiazole-2-thione], the Ki was found to be 1120 nM on stromelysin, 3.6 nM on 92 kD gelatinase, 1.7 nM on 72 kD gelatinase and 7.8 nM in assay [1].
On the same counts, the results for `CC(C)[C@H](NC(=O)[C@H](Cc1ccccc1)NC(=O)c1ccc(-c2ccccc2)cc1)C(=O)Nc1n[nH]c(=S)s1` [5-(N-(4-phenylbenzoyl)phenylalanyl-valylamino)-1,3,4-thiadiazole-2-thione] are 82 nM, 0.31 nM, 0.8 nM and 2.6 nM.
The matching figures for `CC(C)C(NC(=O)C(Cc1ccc(NC(=O)OCc2ccccc2)cc1)NC(=O)OCc1ccccc1)C(=O)Nc1n[nH]c(=S)s1` (centres unmarked) [5-(N-benzyloxycarbonyl-((p-benzyloxycarbonylamino)phenyl-alanyl)-valylamino)-1,3,4-thiadiazole-2-thione]: 62 nM, 0.145 nM, 0.29 nM and 1.17 nM.
The matching figures for `CC(C)[C@H](NC(=O)[C@H](Cc1c[nH]c2ccccc12)NC(=O)[C@H](Cc1ccccc1)NC(=O)OCc1ccccc1)C(=O)Nc1n[nH]c(=S)s1` [5-(N-benzyloxycarbonyl-phenylalanyl-tryptonyl-valylamino)-1,3,4-thiadiazole-2-thione]: 60 nM, 0.36 nM, 0.71 nM and 2.4 nM.
On to `CC(C)[C@H](NC(=O)[C@H](Cc1ccccc1)NC(=O)c1ccc(NS(=O)(=O)c2ccc(C(C)(C)C)cc2)cc1)C(=O)Nc1n[nH]c(=S)s1` [5-(N-(4-(4-t-Butylphenylsulfonylamino)benzoyl)-phenylalanyl-valylamino)-1,3,4-thiadiazole-2-thione], for which the Ki is 44 nM on stromelysin, 0.31 nM on 92 kD gelatinase, 0.68 nM at 72 kD gelatinase and 1.04 nM in assay [1].
On the same counts, the results for `CC(C)C[C@H](NC(=O)[C@H](Cc1ccc(OCc2ccccc2)cc1)NC(=O)OCc1ccccc1)C(=O)Nc1n[nH]c(=S)s1` [5-(N-benzyloxycarbonyl-((O-benzyl)tyrosyl)-leucylamino)-1,3,4-thiadiazole-2-thione] are 96 nM, 0.29 nM, 0.24 nM and 1.83 nM.
On the same counts, the results for `O=C(CCC(NC(=O)OCc1ccccc1)C(=O)NC(C(=O)Nc1n[nH]c(=S)s1)c1ccccc1)NCCc1ccccc1` (centres unmarked) [5-(N-benzyloxycarbonyl-(γ-N-2-phenylethyl)glutamylphenylglycylamino)-1,3,4-thiadiazole-2-thione] are 57 nM, 0.17 nM, 0.52 nM and 0.54 nM.
For `CC(C)[C@H](NC(=O)[C@H](CSCc1ccccc1)NC(=O)OCc1ccccc1)C(=O)Nc1n[nH]c(=S)s1` [5-(N-benzyloxycarbonyl-((S-benzyl)cysteinyl)-valylamino)-1,3,4-thiadiazole-2-thione], the Ki on stromelysin came out at 202 nM; on 92 kD gelatinase it was 2.1 nM; on 72 kD gelatinase, 1.1 nM; in assay [1] it was 3.2 nM.
For `CC(C)(C)OC(=O)N[C@@H](Cc1ccc(OCc2ccccc2)cc1)C(=O)NC(C(=O)Nc1n[nH]c(=S)s1)c1ccccc1` (some centres unmarked) [5-(N-t-Butoxycarbonyl-(O-benzyl)tyrosyl-phenylglycineamino)-1,3,4-thiadiazole-2-thione], the Ki on 92 kD gelatinase turned out to be 0.245 nM; at 72 kD gelatinase, 0.51 nM; in assay [1], 0.99 nM.
